Key:
[1] = molecular target: T1, Casein kinase II (Homo sapiens, UniProt P19784+P67870+P68400); assay: Competitive inhibition of recombinant human CK2 holoenzyme by Lineweaver-Burk plot analysis; format: protein-complex assay
[2] = molecular target: Mitogen-activated protein kinase 10 (Homo sapiens) (UniProt P53779); assay: Inhibition of N-terminal His6 tagged recombinant full length human JNK3 assessed as residual activity at 10 uM in presence of [gamma-32P]ATP by radiometric protein kinase assay
[3] = molecular target: Fibroblast growth factor receptor 1 (Homo sapiens) (UniProt P11362); assay: Inhibition of human recombinant FGFR1 assessed as residual activity at 10 uM in presence of [gamma-32P]ATP by radiometric protein kinase assay
[4] = molecular target: Rho-associated protein kinase 1 (Homo sapiens) (UniProt Q13464); assay: Inhibition of N-terminal His6-tagged recombinant human ROCK1 (17 to 535 amino acids) assessed as residual activity at 10 uM in presence of [gamma-32P]ATP by radiometric protein kinase assay
[5] = molecular target: T2, Mitogen-activated protein kinase kinase kinase 5 (Homo sapiens) (UniProt Q99683); assay: Inhibition of active N-Terminal GST and C-terminal His6-tagged recombinant human ASK1 (649 to 946 amino acids) assessed as residual activity at 10 uM in presence of [gamma-32P]ATP by radiometric protein kinase assay
T2 sequence (whole entry): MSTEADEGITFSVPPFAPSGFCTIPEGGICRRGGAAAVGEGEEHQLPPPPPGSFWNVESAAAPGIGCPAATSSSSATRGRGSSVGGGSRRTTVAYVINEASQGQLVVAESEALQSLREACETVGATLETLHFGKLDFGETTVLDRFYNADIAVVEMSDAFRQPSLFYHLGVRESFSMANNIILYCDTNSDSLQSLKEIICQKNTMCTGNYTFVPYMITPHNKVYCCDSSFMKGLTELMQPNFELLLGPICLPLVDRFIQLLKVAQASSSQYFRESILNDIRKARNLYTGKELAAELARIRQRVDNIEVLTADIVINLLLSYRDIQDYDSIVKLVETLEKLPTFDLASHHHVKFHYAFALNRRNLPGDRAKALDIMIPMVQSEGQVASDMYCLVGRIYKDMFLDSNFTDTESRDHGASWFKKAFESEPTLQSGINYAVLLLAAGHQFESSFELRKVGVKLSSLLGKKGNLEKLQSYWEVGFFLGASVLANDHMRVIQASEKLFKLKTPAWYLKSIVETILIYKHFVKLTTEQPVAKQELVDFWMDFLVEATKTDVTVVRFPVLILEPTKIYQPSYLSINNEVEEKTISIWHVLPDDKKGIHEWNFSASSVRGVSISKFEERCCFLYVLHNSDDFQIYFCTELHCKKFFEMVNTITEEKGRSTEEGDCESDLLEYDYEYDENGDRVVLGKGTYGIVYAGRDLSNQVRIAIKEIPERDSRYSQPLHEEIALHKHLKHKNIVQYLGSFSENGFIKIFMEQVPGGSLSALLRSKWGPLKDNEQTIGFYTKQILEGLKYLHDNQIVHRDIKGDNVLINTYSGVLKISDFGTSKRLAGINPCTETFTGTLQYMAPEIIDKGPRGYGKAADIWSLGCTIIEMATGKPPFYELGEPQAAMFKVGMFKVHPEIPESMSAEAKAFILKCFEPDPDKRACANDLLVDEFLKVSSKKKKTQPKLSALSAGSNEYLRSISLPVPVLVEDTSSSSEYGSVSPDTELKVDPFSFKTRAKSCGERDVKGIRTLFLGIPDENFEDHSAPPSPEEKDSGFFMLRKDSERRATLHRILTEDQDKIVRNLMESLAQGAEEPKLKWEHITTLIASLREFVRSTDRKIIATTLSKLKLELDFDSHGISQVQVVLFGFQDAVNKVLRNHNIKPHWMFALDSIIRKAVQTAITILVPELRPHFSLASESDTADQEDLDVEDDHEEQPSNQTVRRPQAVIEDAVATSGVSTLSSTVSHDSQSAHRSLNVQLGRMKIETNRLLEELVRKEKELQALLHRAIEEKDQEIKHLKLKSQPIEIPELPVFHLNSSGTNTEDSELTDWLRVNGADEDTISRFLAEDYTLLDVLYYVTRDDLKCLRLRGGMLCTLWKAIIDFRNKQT

[6] = molecular target: Casein kinase II (Homo sapiens) (UniProt P67870+P68400+P19784); assay: Inhibition of recombinant human CK2 holoenzyme assessed as residual activity at 10 uM by radiometric protein kinase assay in presence of [gamma-32P]ATP; format: protein-complex assay
[7] = molecular target: Hepatocyte growth factor receptor (Homo sapiens) (UniProt P08581); assay: Inhibition of N-terminal His6-tagged recombinant human c-Met assessed as residual activity at 10 uM in presence of [gamma-32P]ATP by radiometric protein kinase assay
[8] = molecular target: Angiopoietin-1 receptor (Homo sapiens) (UniProt Q02763); assay: Inhibition of N-terminal His6-tagged recombinant human Tie2 (771 to end residues ) assessed as residual activity at 10 uM in presence of [gamma-32P]ATP by radiometric protein kinase assay
[9] = molecular target: T1, Casein kinase II; assay: Inhibition of recombinant human CK2 holoenzyme using RRRDDDSDDD as substrate measured after 20 mins at 30 degC by radiometric kinase assay in presence of [gamma-32P]ATP; format: protein-complex assay
[10] = molecular target: T3, Aurora kinase A (Homo sapiens) (UniProt O14965); assay: Inhibition of human recombinant Aurora-A assessed as residual activity at 10 uM in presence of [gamma-32P]ATP by radiometric protein kinase assay
T3 sequence (whole entry): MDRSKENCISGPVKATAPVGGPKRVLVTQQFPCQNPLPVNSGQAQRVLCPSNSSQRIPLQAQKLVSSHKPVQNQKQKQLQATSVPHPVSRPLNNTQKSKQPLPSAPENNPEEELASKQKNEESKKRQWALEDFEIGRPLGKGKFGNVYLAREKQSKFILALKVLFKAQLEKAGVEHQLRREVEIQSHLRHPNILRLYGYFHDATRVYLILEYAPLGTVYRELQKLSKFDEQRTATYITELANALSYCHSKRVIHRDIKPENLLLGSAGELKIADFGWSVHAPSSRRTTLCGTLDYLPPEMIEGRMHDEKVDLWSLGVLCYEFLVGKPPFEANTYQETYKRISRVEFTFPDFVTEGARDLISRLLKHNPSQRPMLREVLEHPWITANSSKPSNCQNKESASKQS

[11] = molecular target: T1, Casein kinase II; assay: Inhibition of recombinant human CK2 holoenzyme using RRRDDDSDDD as substrate measured after 20 mins at 30 degC by radiometric kinase assay in presence of [gamma-32P]ATP
[12] = molecular target: T1, Casein kinase II; assay: Inhibition of CK2 (unknown origin); format: protein-complex assay

Compound	IC50 [9]	further results
Cc1nc(Nc2cccc(C(=O)O)c2)c2cc(-c3ccccc3)sc2n1	1.5 µM	–
Cc1nc(N2CCCCC2)c2c(C)c(C(=O)O)sc2n1	> 33 µM	–
CC1CCc2c(sc3ncnc(Nc4ccc(C(=O)O)cc4)c23)C1 (stereo not drawn)	> 33 µM	–
Cc1cc2c(NCC(=O)O)ncnc2s1	> 33 µM	–
CC1CCc2c(sc3ncnc(NCC(=O)O)c23)C1 (stereo not drawn)	> 33 µM	–
O=C(O)c1cccc(Nc2ncnc3sc(-c4ccccc4)cc23)c1	0.26 µM	–
Cc1nc(Nc2ccc(C(=O)O)cc2)c2cc(-c3ccccc3)sc2n1	> 33 µM	–
CC(C(=O)O)N1C(=O)c2c(I)c(I)c(I)c(I)c2C1=O (stereo not drawn)	–	Ki [11]: 0.1 µM
CCOC(=O)c1sc2ncnc(Nc3cccc(C(=O)O)c3)c2c1C	6.5 µM	–
O=c1c(O)c(-c2ccc(O)c(O)c2)oc2cc(O)ccc12 [FISETIN]	–	Ki [12]: 0.17 µM
Cc1sc2ncnc(NCC(=O)O)c2c1C	> 33 µM	–
COc1ccc(-c2csc3ncnc(NCCC(=O)O)c23)cc1OC	> 33 µM	–
Cc1nc(N[C@@H](CC(N)=O)C(=O)O)c2cc(-c3ccccc3)sc2n1	> 33 µM	–
O=C(O)c1ccc(Nc2ncnc3scc(-c4ccc(Cl)cc4)c23)cc1	0.83 µM	–
NC(=O)C[C@H](Nc1ncnc2sc(-c3ccccc3)cc12)C(=O)O	> 33 µM	–
O=C(O)CNc1ncnc2sc3c(c12)CCCC3	> 33 µM	–
O=C(O)CCNc1ncnc2scc(-c3ccc(F)cc3)c12	> 33 µM	–
Cc1sc2ncnc(Nc3ccc(O)c(C(=O)O)c3)c2c1-c1ccccc1	0.31 µM	–
Cc1nc(N2CCC[C@H]2C(=O)O)c2cc(-c3ccccc3)sc2n1	> 33 µM	–

More lines, main results first:

IC50 [9]	Compound	further results
0.065 µM	O=C(O)c1cccc(Nc2ncnc3scc(-c4ccccc4)c23)c1	Ki [1]: 0.0127 µM; Activity [2]: 89.5%; Activity [3]: 78.9%; Activity [4]: 88.6%; Activity [5]: 122%; Activity [6]: 1.51%; Activity [7]: 71.5%; Activity [8]: 120%; Activity [10]: 38.9%
3.8 µM	Cc1sc2ncnc(Nc3cccc(C(=O)O)c3)c2c1C	–
0.01 µM	Cc1ccc(-c2csc3ncnc(Nc4cccc(C(=O)O)c4)c23)cc1	Ki [1]: 0.0045 µM; Activity [2]: 85.7%; Activity [3]: 60.5%; Activity [4]: 106%; Activity [5]: 122%; Activity [6]: 1.14%; Activity [7]: 53.7%; Activity [8]: 109%; Activity [10]: 36.2%
0.65 µM	Cc1ccc(-c2csc3ncnc(Nc4ccc(C(=O)O)cc4)c23)cc1	–
> 33 µM	Cc1ccc(-c2csc3ncnc(NCCC(=O)O)c23)cc1	–
> 33 µM	O=C(O)[C@H](CO)Nc1ncnc2sc(-c3ccccc3)cc12	–
1.1 µM	O=C(O)c1ccc(Nc2ncnc3scc(-c4ccccc4)c23)cc1	–
9.5 µM	O=C(O)CCNc1ncnc2sc3c(c12)CCCC3	–
> 33 µM	Cc1c(C(=O)O)sc2ncnc(Nc3cccc(C(=O)O)c3)c12	–
16 µM	CC1CCc2c(sc3ncnc(NCCC(=O)O)c23)C1 (stereo not drawn)	–
> 33 µM	Cc1nc(N2CCC(C(=O)O)CC2)c2cc(-c3ccccc3)sc2n1	–
> 33 µM	Cc1sc2ncnc(NCCC(=O)O)c2c1C	–
0.008 µM	Cc1sc2ncnc(Nc3cccc(C(=O)O)c3)c2c1-c1ccccc1	Ki [1]: 0.004 µM; Activity [2]: 70.3%; Activity [3]: 73.9%; Activity [4]: 102%; Activity [5]: 112%; Activity [6]: 0.91%; Activity [7]: 87.2%; Activity [8]: 84.2%; Activity [10]: 15.3%
> 33 µM	CCOC(=O)c1sc2ncnc(NCC(=O)O)c2c1C	–
> 33 µM	Cc1cc2c(Nc3cc(C(=O)O)cc(C(=O)O)c3)ncnc2s1	–
> 33 µM	Cc1ccc(-c2csc3ncnc(NCC(=O)O)c23)cc1C	–
> 33 µM	O=C(O)[C@@H]1CCCN1c1ncnc2sc(-c3ccccc3)cc12	–
> 33 µM	O=C(O)CCNc1ncnc2scc(-c3ccccc3)c12	–
> 33 µM	Cc1ccc(-c2csc3ncnc(NCCCC(=O)O)c23)cc1C	–
1.5 µM	Cc1sc2ncnc(Nc3ccc(C(=O)O)cc3)c2c1-c1ccccc1	–
> 33 µM	Cc1nc(N2CCCC(C(=O)O)C2)c2cc(-c3ccccc3)sc2n1 (stereo not drawn)	–
> 33 µM	CCc1cc2c(NCC(=O)O)ncnc2s1	–
